Results as given in US10603357B2, “Therapeutic TREM-1 peptides” (Universite de Lorraine, priority 2004, dated 2020).
Marks after values point to notes of the source that are not given here.

Legend:
[1] = system: BALB/c mice; assay: LPS-induced endotoxaemia, survival of mice (Example 1); format: in vivo, mouse; conditions: for animals alive 7 days after LPS injection: 200 μl of 300 μM peptide i.p. 1 hour before 200 μg LPS i.p., 10 mice per group (FIG. 2, 3); for protection (survival) from LPS: 4 hours after LPS (FIG. 4)
Protocol: BALB/c mice (10 per group) were injected intraperitoneally with 200 μg LPS. The TREM-1 peptides P1, P2, P3, or P5 (200 μl of a 300 μM solution per mouse) were injected intraperitoneally 1 hour before LPS. Viability of mice was monitored twice a day for 7 days. Statistical analysis was performed by Logrank test. Data from control mice represent cumulative survival curves from two independent experiments performed under identical conditions.
BALB/c mice (10 per group) were injected intraperitoneally with 200 μg LPS. TREM-1 peptide P1, 200 μl of a 300 μM solution per mouse was injected intraperitoneally 1 hour before or 4 hours after LPS. Viability of mice was monitored twice a day for 7 days. Statistical analysis was performed with the Logrank test. Data from control mice represent cumulative survival curves from two independent experiments performed under identical conditions
BALB/c mice (10 per group) were injected intraperitoneally with 200 μg LPS. P1 peptide, 200 μl of a 150, 300 and 600 μM solution per mouse (dots) or P3, 200 μl of a 600 μM solution per mouse (filled squares) were injected intraperitoneally 4 hours after LPS. Viability of mice was monitored twice a day for 7 days. Statistical analysis was performed with the Logrank test
In the experiments of this example, the peptides were administered in a volume of 200 μl of the solution molarity indicated. To assess the ability of TREM1-peptides to protect mice from LPS-induced endotoxaemia, the Inventors administered peptides P1, P2, P3 and P5 (300 μM) 1 hour before a lethal dose of lipopolysaccharide (LPS) (FIG. 2). Lethality was monitored over time and compared with animals that had received control injections of vehicle alone. P5 injection confers maximal protection, with 90% of the animals still alive 7 days after LPS injection, as compared with 10% of control mice (p<0.001). 60% of the P1-treated mice and 50% of the P2 treated mice survived endotoxaemia as compared with 10% of control mice (p<0.01 and p<0.05 respectively).
In order to investigate whether TREM-1 peptide treatment could be delayed until after the administration of LPS, the Inventors injected the peptides at 4 hours after LPS injection. […] 80% of the mice injected with P1 4 hours after LPS survived endotoxaemia compared to 60% of mice treated 1 h before LPS and 10% of mice treated with vehicle alone (p<0.001 and p<0.01 respectively). Thus, P1 is effective even when injected after the outbreak of endotoxaemia. […] P1 administration conferred maximal protection (80%) when administered at 600 μM (p<0.01) and the level of protection dropped to 50% at 300 μM (p<0.05) and further down to 30% at 150 μM as compared to 20% of control mice, indicating a dose dependent effect of P1 (FIG. 4). The Inventors then investigated whether P1 protects against septic shock in the “CLP” model (Cecal Ligation and Puncture is a widely used experimental model of sepsis). Mice treated with two doses of P1 at 5 and 24 hours after CLP were protected from death as compared to control treated mice (p=0.0791) although the difference was not statistically significant. 40% of the mice injected with P1 at 5 days after CLP survived compared to 5% of mice treated with P3 peptide.

[2] = system: TREM-1/TREM-1 ligand interaction; assay: competition of soluble mouse TREM-1/IgG1 binding to TREM-1 ligand positive peritoneal exudate cells (flow cytometry); conditions: peptides 100 and 500 μM, pre-incubated 45 minutes on ice; 2 μg/ml mouseTREM-1/hIgG1
Protocol: Cytofluorimetric analysis of peritoneal exudate cells with 2 μg/ml of mouseTREM-1/hIgG1 in the presence of a 500 μM solution per mouse (thin line), 100 μM solution per mouse (dotted line) or absence (thick line) of the peptides is shown. The grey histogram represents immunostaining with human IgG1 as a control.
A possible mechanism of action could be the ability of TREM-1 derived peptide to interfere with TREM-1/TREM-1 ligand interaction. To address this question the Inventors performed competition experiments on TREM-1 ligand positive cells: PEC (Peritoneal Exudate Cells) from CLP treated mice.
Peritoneal exudate cells (PEC) from mice suffering from a caecal ligation and puncture (CLP)-induced peritonitis were subjected to flow cytometry analysis after incubation with a PE-conjugated anti-human IgG1 (Jackson Immunoresearch, Bar Harbor, USA). Competition with TREM-1 peptides was performed by pre-incubating cells with the indicated concentrations of peptides for 45 minutes on ice before adding mTREM-1-IgG1.

[3] = system: rats; assay: LPS-induced endotoxinemia in rats, haemodynamic and biological measurements; format: in vivo, rat; conditions: for effect on plasma IL-1β release: LPS 15 mg/kg (FIG. 13B); for Nitrite/nitrate concentrations after LPS administration: LPS 15 mg/kg (FIG. 14); for Aortic blood flow / Heart Rate / Lactate / MAP / Mesenteric blood flow / pH (arterial): LPS-induced endotoxinemia
Protocol: Animals were randomly grouped (n=10-20) and treated with Escherichia coli LPS (0111:B4, Sigma-Aldrich, Lyon, France) i.p. in combination with the TREM-1 or scrambled peptides.
Immediately after LPS administration as well as 16 hours after CLP, arterial BP (systolic, diastolic, and mean), heart rate, abdominal aortic blood flow, and mesenteric blood flow were recorded using a procedure described elsewhere (see Mansart, A. et al. Shock 19:38-44 (2003)). Briefly, the left carotid artery and the left jugular vein were cannulated with PE-50 tubing. Arterial BP was continuously monitored by a pressure transducer and an amplifier-recorder system (IOX EMKA Technologies, Paris, France). Perivascular probes (Transonic Systems, Ithaca, N.Y.) wrapped up the upper abdominal aorta and mesenteric artery, allowed to monitor their respective flows by means of a flowmeter (Transonic Systems). After the last measurement (4th hour during LPS experiments and 24th hour after CLP), animals were sacrificed by an overdose of sodium thiopental i.v.
Blood was sequentially withdrawn from the left carotid artery. Arterial lactate concentrations and blood gases analyses were performed on an automatic blood gas analyser (ABL 735, Radiometer, Copenhagen, Denmark). Concentrations of TNF-α and IL-1β in the plasma were determined by an ELISA test (Biosource, Nivelles, Belgium) according to the recommendations of the manufacturer. Plasmatic concentrations of nitrates/nitrites were measured using the Griess reaction (R&D Systems, Abingdon, UK).

Sequence | animals alive 7 days after LPS injection [1] | inhibition of TREM-1 interaction with its ligand (mTREM-1/IgG1 binding to PEC) [2] | effect on plasma IL-1β release [3] | Nitrite/nitrate concentrations after LPS administration [3] | Aortic blood flow ([3]; H0) | Heart Rate ([3]; H0) | Lactate ([3]; H0) | MAP ([3]; H0) | Mesenteric blood flow ([3]; H0) | pH (arterial) ([3]; H0) | Aortic blood flow ([3]; H1) | Heart Rate ([3]; H1) | Lactate ([3]; H1) | MAP ([3]; H1) | Mesenteric blood flow ([3]; H1) | pH (arterial) ([3]; H1) | Aortic blood flow ([3]; H2) | Heart Rate ([3]; H2) | Lactate ([3]; H2) | MAP ([3]; H2) | other results
LQVTDSGLYRCVIYHPP [P5] | 90% | inhibit TREM-1 interaction with its ligand in a dose dependent manner | strongly reduced | remained stable | 48 ± 9 mL/min | 474 ± 49 bpm | 3.4 ± 1.5 mmol/L | 115 ± 16 mmHg | 12.8 ± 6.4 mL/min | 7.33 ± 0.04 | 32 ± 8 mL/min | 498 ± 26 bpm | 5.4 ± 1.4 mmol/L | 99 ± 22 mmHg | 11.4 ± 2.7 mL/min | 7.28 ± 0.06 | 23 ± 4 ^b mL/min | 510 ± 42 bpm | 5.5 ± 1.6 mmol/L | 101 ± 18 mmHg | attenuation of plasma TNF-α production ([3]; LPS 15 mg/kg (FIG. 13A)): ~30%; Mesenteric blood flow ([3]; H2): 9.2 ± 1.9 mL/min; pH (arterial) ([3]; H2): 7.32 ± 0.07; Aortic blood flow ([3]; H3): 20 ± 7 ^b mL/min; Heart Rate ([3]; H3): 517 ± 62 bpm; Lactate ([3]; H3): 5.9 ± 1.7 ^b mmol/L; MAP ([3]; H3): 93 ± 21 ^b mmHg; Mesenteric blood flow ([3]; H3): 6.0 ± 0.8 mL/min; pH (arterial) ([3]; H3): 7.29 ± 0.11; Aortic blood flow ([3]; H4): 15 ± 6 ^b mL/min; Heart Rate ([3]; H4): 510 ± 26 bpm; Lactate ([3]; H4): 7.4 ± 1.8 ^b mmol/L; MAP ([3]; H4): 89 ± 10 ^b mmHg; Mesenteric blood flow ([3]; H4): 5.0 ± 1.0 mL/min; pH (arterial) ([3]; H4): 7.28 ± 0.12 ^b
LVVTQRPFTRPSEVHMGKFTLKH (listed as Mus musculus) [P1] | 60% | inhibit TREM-1 interaction with its ligand in a dose dependent manner | delayed the IL-1β peak until the third hour after LPS injection, but without attenuation | increased rapidly | 49 ± 11 mL/min | 464 ± 25 bpm | 2.7 ± 0.1 mmol/L | 116 ± 10 mmHg | 12.0 ± 3.7 mL/min | 7.32 ± 0.04 | 39 ± 12 ^a mL/min | 492 ± 26 bpm | 4.9 ± 1.1 mmol/L | 119 ± 14 mmHg | 10.5 ± 1.7 mL/min | 7.29 ± 0.04 | 26 ± 14 ^a mL/min | 492 ± 26 bpm | 5.0 ± 0.9 mmol/L | 113 ± 21 mmHg | protection (survival) from LPS ([1]; 200 μl of 150 μM): 30%; protection (survival) from LPS ([1]; 200 μl of 300 μM): 50%; protection (survival) from LPS ([1]; 200 μl of 600 μM): 80%; late death over one week ([1]; delayed treatment after LPS): No late death occurred; mice surviving endotoxaemia ([1]; peptide 300 μM injected 4 hours after LPS (FIG. 3)): 80%; effect on LPS-induced plasma TNF-α production ([3]; LPS 15 mg/kg (FIG. 13A)): no effect; Mesenteric blood flow ([3]; H2): 7.7 ± 2.7 mL/min; pH (arterial) ([3]; H2): 7.30 ± 0.01; Aortic blood flow ([3]; H3): 22 ± 8 ^a mL/min; Heart Rate ([3]; H3): 480 ± 30 bpm; Lactate ([3]; H3): 5.7 ± 0.7 ^a mmol/L; MAP ([3]; H3): 97 ± 29 ^a mmHg; Mesenteric blood flow ([3]; H3): 5.0 ± 1.0 mL/min; pH (arterial) ([3]; H3): 7.26 ± 0.06; Aortic blood flow ([3]; H4): 16 ± 6 ^a mL/min; Heart Rate ([3]; H4): 480 ± 20 bpm; Lactate ([3]; H4): 7.9 ± 1.7 ^a mmol/L; MAP ([3]; H4): 92 ± 7 ^a mmHg; Mesenteric blood flow ([3]; H4): 4.8 ± 0.9 mL/min; pH (arterial) ([3]; H4): 7.26 ± 0.08 ^a
